Measurements published in patent publication EP4610267A1, “CYCLIC DINUCLEOTIDES AND CONJUGATES THEREOF WITH ANTIBODIES” (priority 2024, dated 2025).
pEC50: −log10 of the molar value.

Experiments:
[1] = test system: CT26 mouse colon carcinoma; test: CT26 mouse tumor model, intratumoral injection, tumor growth; type: in vivo, BALB/c mice; settings: 5mg/kg intratumorally on day 1, 4 and 8
Method: The CT26 mouse colon carcinoma cell line was obtained from American Type Culture Collection (ATCC®, CRL-2638). The cells were cultured in RPMI-1640 medium containing 10% fetal bovine serum, 2 mM glutamine, 100 units/mL penicillin G sodium, and 100 µg/mL streptomycin sulfate at 37 °C in a humidified incubator with 5% CO2. On the day of tumor implantation in ten-week-old female BALB/c mice (Charles River Laboratories), CT26 cells harvested during the exponential growth phase were resuspended in phosphate-buffered saline (PBS) at a concentration of 1 × 10^7 cells/mL. Tumors were initiated by subcutaneous implantation of 1 × 10^6 CT26 cells (in a 0.1 mL suspension) into the right flank of each test animal. Tumor dimensions were measured in two directions, and tumor volumes were calculated using the formula (L × W^2)/2. Animals were pair matched when tumor reached volume 100 - 150 mm^3 (designated as day 1) and injected intratumorally (i.t.) on day 1, 4 and 8 with 5mg/kg or 1.5mg/kg Compound 2.2 or PBS in total volume 20 µL.

STING REF = target: T1, STING REF (Homo sapiens, UniProt Q86WV6); test: 293T STING digitonin reporter assay (REF haplotype); type: cell-based; settings: digitonin permeabilised 293T reporter cells
T1 construct: expressed in transfected cells
T1 sequence (Q86WV6 whole entry): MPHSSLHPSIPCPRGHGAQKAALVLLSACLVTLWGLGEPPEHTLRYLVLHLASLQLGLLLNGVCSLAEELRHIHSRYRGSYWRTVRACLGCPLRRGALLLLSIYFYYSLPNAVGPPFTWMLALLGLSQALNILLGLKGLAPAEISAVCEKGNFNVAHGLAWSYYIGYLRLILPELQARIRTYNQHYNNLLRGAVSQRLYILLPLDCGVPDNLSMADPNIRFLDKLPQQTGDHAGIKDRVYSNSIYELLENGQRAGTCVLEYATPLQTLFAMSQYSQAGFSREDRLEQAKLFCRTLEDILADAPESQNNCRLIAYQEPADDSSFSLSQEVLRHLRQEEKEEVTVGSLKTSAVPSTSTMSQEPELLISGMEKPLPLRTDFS
Method: (§1) Digitonin Assay with 293T Reporter Cells. The generation of 293T reporter cells stably expressing different STING protein haplotypes (WT, HAQ, REF, AQ, or Q) was described previously (Novotna et al, J. Med. Chem. 2019,62, 10676). The cells were seeded at a density of 250 000 cells per cm^2 into 96 well white poly(D-lysine) coated plates in 100 µL of DMEM with high glucose supplemented with 10% heat inactivated FBS. Next day, the medium was removed, and compounds were added in 3-fold serial dilutions in a digitonin buffer containing 50 mM HEPES (pH 7.0), 100 mM KCl, 3 mM MgClz, 0.1 mM DTT, 85 mM sucrose, 0.2% (w/w) BSA, 1 mM ATP, 0.1 mM GTP, and 10 µg/mL digitonin A. After 30 min incubation at 37 °C with 5% CO2, the digitonin buffer was removed, cells were washed once with 100 µL of the cultivation medium, and 100 µL of fresh medium was added to each well. The plates with cells were further incubated for 5 h at 37 °C with 5% CO2. Thereafter, 50 µL of the medium was removed, and 30 µL of Bright-Glo Luciferase Assay System reagent was added to each well. […] Nonlinear regression curve fit with standard slope was used for EC50 value calculations. The EC50 value represents CDN concentration that gives half-maximal response of firefly luciferase in the 293T reporter assay.

STING Q = test: 293T STING digitonin reporter assay (Q haplotype); type: cell-based, human; settings: digitonin permeabilised 293T reporter cells
Method: as §1

[2] = test system: Her2 expressing HCC1954 breast tumor xenograft; test: Her2 expressing HCC1954 breast tumor xenograft model; type: in vivo, SCID-beige mice; settings: single i.v. dose 1.7 mg/kg (40x higher payload dose than in 2.5 mg/kg mAb3-3.3) (Fig. 8)
Method: For in vivo testing in the Her2 expressing HCC1954 breast cancer xenograft mouse model, female SCID-beige mice at 8 to 12 weeks of age (purchased from Charles River Lab) were used for implantation. HCC1954 cells (obtained from ATCC) were cultured in RPMI medium supplemented with 10% fetal bovine serum at 37°C in a humidified incubator with 5% CO2 On the day of implantation, 1 × 10^7 HCC1954 cells were re-suspended in 100µL RPMI1640 serum free media containing 50% Matrigel and implanted subcutaneously in the right flank. After implant, tumors were measured by caliper and mice were weighed two times per week once tumors were palpable. Tumor volumes were calculated from caliper measurements using formula (L × W^2)/2. Animals were pair matched when tumor reached volume 100 - 150 mm^3 (designated as day 1). Two i.v. injections were performed on day 1 and 8 (D1 and D8) of 5mg/kg of anti-Her2 mAbl-3.4 (DAR 3.9), 5mg/kg mAbl-3.11 (DAR 3.9), 5mg/kg isotype mAb-3.4 (DAR 3.9), 5mg/kg anti-Her2 mAb1 or PBS vehicle. […]
Compound 3.13 was conjugated to engineered light chain C110 and heavy chain C375 of anti-Her2 mAb (mAb3) as described above. […] After implant, tumors were measured by caliper and mice were weighed two times per week once tumors were palpable. Tumors were measured in two dimensions and tumor volumes were calculated from caliper measurements using formula (L × W^2)/2. […]

plasma cytokines = test: In vivo plasma cytokine induction after single i.v. injection (multiplex ELISA, Luminex); settings: single i.v. 1.7mg/kg, Balb/C mice (Fig. 7)
Method: Compound 3.3 was conjugated to the engineered light chain C110 and heavy chain C375 of anti-Her2 mAb (mAb3) as described above (mAb3-3.3). Furthermore, the compound was also conjugated to anti-Her2 mAb (mAb2) via inter-chain Cys (mAb2-3.3). A single intravenous injection of 5 mg/kg mAb2-3.3 (DAR 3.8) and 5 mg/kg mAb3-3.3 (DAR 3.6) was administered to Balb/C mice via tail vein injection. Blood samples were collected from the injected animals at 2, 4, 8, and 20 hours post-injection, and plasma cytokines were measured using multiplex ELISA (Luminex).
Compound 3.3 was conjugated to anti-TROP2 mAb4 via inter-chain Cys and to the engineered light chain C110 and heavy chain C375 of anti-TROP2 mAb5, as described above. […] Blood samples were collected from the injected animals at 2, 4, 8, and 20 hours post-injection, and plasma cytokines were measured using multiplex ELISA (Luminex).

With Nc1ncnc2c1ncn2[C@@H]1O[C@@H]2OCP(=O)(S)O[C@@H]3[C@H](F)[C@@H](COP(=O)(S)OC[C@H]2[C@H]1F)O[C@H]3n1cnc2c(=O)[nH]cnc21 (single isomer, unassigned) [Compound 2.2] the “animals tumor free on day 65 (out twelve tumor bearing animals)” value [1] was “Twelve”, the pEC50 (STING REF) was 7.30 and the pEC50 (STING Q) was 7.10. For the same molecule, the “effect on HCC1954 tumors” value [2] was “only triggered tumor growth inhibition” and the plasma cytokine levels (plasma cytokines) was “high plasma levels”.
